The first assay concerns the target Transient receptor potential cation channel subfamily V member 1 (Homo sapiens, UniProt Q8NER1). The assay can be described thus: Ca2+ Influx Functional Assay for the Determination of in Vitro Activity.
Settings: not given
On the procedure:
The functional antagonist activity of compounds at the TRPV1 receptor was determined with a Ca2+ influx assay by measuring the effect on capsaicin (0.05 uM) evoked increase in intracellular Ca2+ levels using cells stably expressing recombinant human TRPV1. All compounds were tested over an 11-point half-log concentration range. The fluorescent Ca2+ chelating dye fluo-4 was used as an indicator of the relative levels of Ca2+ in a 96-well format using a fluorescence imaging plate reader. Fluorescence readings were made at 1-5 s intervals over the 240 s course of the experimental run. The peak increase in relative fluorescence units was calculated and expressed as a percentage of the 0.05 uM capsaicin (control) response. Curve fits of the data were solved using a four-parameter logistic Hill equation in GraphPad Prism, and IC50 values were calculated.
Sequence of Transient receptor potential cation channel subfamily V member 1 (Q8NER1 whole entry): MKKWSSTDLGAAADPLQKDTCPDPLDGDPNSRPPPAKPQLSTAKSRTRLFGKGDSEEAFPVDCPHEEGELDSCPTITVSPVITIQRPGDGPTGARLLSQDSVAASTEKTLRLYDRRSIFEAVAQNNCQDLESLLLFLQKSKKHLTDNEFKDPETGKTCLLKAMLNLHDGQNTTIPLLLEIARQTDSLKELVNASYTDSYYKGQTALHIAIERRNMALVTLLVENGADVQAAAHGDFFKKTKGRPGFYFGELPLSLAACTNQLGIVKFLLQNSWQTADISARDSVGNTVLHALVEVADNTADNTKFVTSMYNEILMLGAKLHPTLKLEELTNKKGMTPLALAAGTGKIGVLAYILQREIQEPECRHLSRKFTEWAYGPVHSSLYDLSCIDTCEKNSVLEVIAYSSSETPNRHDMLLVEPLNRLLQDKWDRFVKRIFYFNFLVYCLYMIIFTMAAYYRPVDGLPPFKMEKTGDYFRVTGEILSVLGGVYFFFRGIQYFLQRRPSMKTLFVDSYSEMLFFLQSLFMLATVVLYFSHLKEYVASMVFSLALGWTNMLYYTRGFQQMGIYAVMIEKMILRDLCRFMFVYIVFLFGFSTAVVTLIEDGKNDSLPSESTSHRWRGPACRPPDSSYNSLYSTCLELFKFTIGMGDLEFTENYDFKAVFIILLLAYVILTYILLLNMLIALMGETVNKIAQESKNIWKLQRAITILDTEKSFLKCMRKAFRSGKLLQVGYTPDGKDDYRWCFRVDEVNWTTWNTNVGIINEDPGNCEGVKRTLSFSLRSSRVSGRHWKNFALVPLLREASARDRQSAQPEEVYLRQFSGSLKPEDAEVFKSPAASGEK
The EC50 is the midpoint of the concentration-response curve. Read a high EC50 as lower potency in that assay. Consider `O=C1C[C@H]2CC[C@@H](C1)N2c1cc(F)c(CNC(=O)Nc2cccc3[nH]ncc23)cc1F` [1-({2,5-difluoro-4-[(1R,5S)-3-oxo-8-azabicyclo[3.2.1]octan-8-yl]phenyl}methyl)-3-1H-indazol-4-ylurea], for which the EC50 worked out at 157 nM.
With `CC(C)(C)CCc1cc(N2[C@@H]3CCC[C@H]2CC3)ccc1CNC(=O)Nc1cccc2[nH]ncc12` [1-({4-[(1R,5S)-8-azabicyclo[3.2.1]octan-8-yl]-2-(3,3-dimethylbutyl)phenyl}methyl)-3-1H-indazol-4-ylurea], a half-maximal effect (EC50) was put at 10.3 nM.
The compound `O=C(NCc1cc(F)c(N2[C@@H]3CC[C@H]2CC2(C3)OCCO2)cc1F)Nc1cccc2[nH]ncc12` [1-({4-[(1S,5R)-8-azaspiro[bicyclo[3.2.1]octane-3,2'-[1,3]dioxolane]]-2,5-difluorophenyl}methyl)-3-1H-indazol-4-ylurea] showed an EC50 of 82 nM.
With `O=C(NCc1ccc(N2[C@@H]3CCC[C@H]2CC3)c(F)c1)Nc1cccc2[nH]ncc12` [1-({4-[(1R,5S)-8-azabicyclo[3.2.1]octan-8-yl]-3-fluorophenyl}methyl)-3-1H-indazol-4-ylurea], a half-maximal response (EC50) required 14.8 nM.
For `CC(C)c1cc(N2[C@@H]3CCC[C@H]2CC3)ccc1CNC(=O)Nc1cccc2[nH]ncc12` [1-({4-[(1R,5S)-8-azabicyclo[3.2.1]octan-8-yl]-2-(propan-2-yl)phenyl}methyl)-3-1H-indazol-4-ylurea], the EC50 stood at 35.3 nM.
`O=C(NCc1ccc(N2[C@@H]3CCC[C@H]2CC3)c(Br)c1)Nc1cccc2[nH]ncc12` [1-({4-[(1R,5S)-8-azabicyclo[3.2.1]octan-8-yl]-3-bromophenyl}methyl)-3-1H-indazol-4-ylurea] showed an EC50 of 43.2 nM.
`O=C(NCc1ccc(N2[C@@H]3CCC[C@H]2CC3)c(Cl)c1)Nc1cccc2[nH]ncc12` [1-({4-[(1R,5S)-8-azabicyclo[3.2.1]octan-8-yl]-3-chlorophenyl}methyl)-3-1H-indazol-4-ylurea] came in with an EC50 of 20.4 nM.
`Cn1ncc2c(NC(=O)NCc3ccc(N4[C@@H]5CCC[C@H]4CC5)cc3Cc3ccccc3)cccc21` [1-({4-[(1R,5S)-8-azabicyclo[3.2.1]octan-8-yl]-2-benzylphenyl}methyl)-3-(1-methyl-1H-indazol-4-yl)urea] gave an EC50 of 19 nM.
As for `Cc1cc(CNC(=O)Nc2cccc3[nH]ncc23)ccc1N1[C@@H]2CCC[C@H]1CC2` [1-({4-[(1R,5S)-8-azabicyclo[3.2.1]octan-8-yl]-3-methylphenyl}methyl)-3-1H-indazol-4-ylurea], the response was half-maximal at 19.8 nM (EC50).
Compound `Cc1cc(N2[C@@H]3CCC[C@H]2CC3)ccc1CNC(=O)Nc1cccc2[nH]ncc12` [1-({4-[(1R,5S)-8-azabicyclo[3.2.1]octan-8-yl]-2-methylphenyl}methyl)-3-1H-indazol-4-ylurea] registered an EC50 of 29 nM.
On to `O=C(NCc1ccc(N2[C@@H]3CCC[C@H]2CC3)c(F)c1F)Nc1cccc2[nH]ncc12` [1-({4-[(1R,5S)-8-azabicyclo[3.2.1]octan-8-yl]-2,3-difluorophenyl}methyl)-3-1H-indazol-4-ylurea], for which the response was half-maximal at 25.5 nM (EC50).
In turn, `CCN1CCc2cc(CNC(=O)Nc3cccc4[nH]ncc34)ccc21` [1-[(1-ethyl-2,3-dihydro-1H-indol-5-yl)methyl]-3-1H-indazol-4-ylurea] returned an EC50 of 285 nM.
`O=C(NCc1ccc(N2[C@@H]3CCC[C@H]2CC3)c(C(F)(F)F)c1)Nc1cccc2[nH]ncc12` [1-({4-[(1R,5S)-8-azabicyclo[3.2.1]octan-8-yl]-3-(trifluoromethyl)phenyl}methyl)-3-1H-indazol-4-ylurea] showed an EC50 of 26.9 nM.
Compound `O=C(NCc1cc(F)c(N2[C@@H]3CCC[C@H]2CC3)c(F)c1)Nc1cccc2[nH]ncc12` [1-({4-[(1R,5S)-8-azabicyclo[3.2.1]octan-8-yl]-3,5-difluorophenyl}methyl)-3-1H-indazol-4-ylurea] yielded an EC50 of 12.6 nM.
For `Cn1c2ccccc2c2cc(CNC(=O)Nc3cccc4[nH]ncc34)ccc21` [3-1H-indazol-4-yl-1-[(9-methyl-9H-carbazol-3-yl)methyl]urea], the concentration giving a half-maximal response (EC50) came to 902 nM.

Staying with this assay, now noted: pH 7.4; 22 °C.
In turn, `O=C(NCc1ccc(N2CCCCCC2)cc1C(F)(F)F)Nc1cccc2[nH]ncc12` [1-{[4-(azepan-1-yl)-2-(trifluoromethyl)phenyl]methyl}-3-1H-indazol-4-ylurea] displayed an EC50 of 133 nM.
On to `O=C(NCc1ccc(N2CCCCCC2)cc1Cl)Nc1cccc2cnccc12` [3-{[4-(azepan-1-yl)-2-chlorophenyl]methyl}-1-isoquinolin-5-ylurea], for which a half-maximal effect (EC50) was put at 5.2 nM.
`O=C(NCc1ccc(N2CCCCCCC2)cc1)Nc1cccc2cnccc12` [3-{[4-(azocan-1-yl)phenyl]methyl}-1-isoquinolin-5-ylurea]: the EC50 was found to be 4.7 nM.
Same read-out and setting: with `CC1CCN(c2ccc(CNC(=O)Nc3cccc4cnccc34)cc2)CC1` [1-isoquinolin-5-yl-3-{[4-(4-methylpiperidin-1-yl)phenyl]methyl}urea] the figure was 9.3 nM; with `O=C(NCc1ccc(N2CCCCCC2)c(F)c1)Nc1cccc2cnccc12` [3-{[4-(azepan-1-yl)-3-fluorophenyl]methyl}-1-isoquinolin-5-ylurea], 2.8 nM; with `Nc1cc2c(NC(=O)NCc3ccc(N4CCCCCC4)cc3)cccc2cn1` [1-(3-aminoisoquinolin-5-yl)-3-{[4-(azepan-1-yl)phenyl]methyl}urea], 9.8 nM.
The same measure, in the same setting: to `O=C(NCc1ccc(C(F)(F)F)cc1)Nc1cccc2cnccc12` [1-isoquinolin-5-yl-3-{[4-(trifluoromethyl)phenyl]methyl}urea] belongs 2.1 nM; to `O=C(NCc1ccc(N2CCCCCC2)cc1)Nc1cccc2cnccc12` [3-{[4-(azepan-1-yl)phenyl]methyl}-1-isoquinolin-5-ylurea], 3.3 nM.
Regarding `O=C(NCc1cc(F)c(N2CCCCCC2)c(F)c1)Nc1cccc2[nH]ncc12` [1-{[4-(azepan-1-yl)-3,5-difluorophenyl]methyl}-3-1H-indazol-4-ylurea], the response was half-maximal at 39.3 nM (EC50).
In turn, `O=C(NCc1ccc(N2[C@@H]3CCC[C@H]2CC3)cc1C(F)(F)F)Nc1cccc2[nH]ncc12` [1-({4-[(1R,5S)-8-azabicyclo[3.2.1]octan-8-yl]-2-(trifluoromethyl)phenyl}methyl)-3-1H-indazol-4-ylurea] showed an EC50 of 54.5 nM.
As to `O=C(NCc1ccc(N2[C@@H]3CCC[C@H]2CC3)cc1Cl)Nc1cccc2[nH]ncc12` [1-({4-[(1R,5S)-8-azabicyclo[3.2.1]octan-8-yl]-2-chlorophenyl}methyl)-3-1H-indazol-4-ylurea], the EC50 worked out at 58.8 nM.
Take `O=C(NCc1ccc(N2CCOCC2)cc1)Nc1cccc2cnccc12` [1-isoquinolin-5-yl-3-{[4-(morpholin-4-yl)phenyl]methyl}urea]: the EC50 came out at 91 nM.
Consider `CC1CN(c2ccc(CNC(=O)Nc3cccc4cnccc34)cc2)CC(C)O1` (stereo not given) [3-{[4-(2,6-dimethylmorpholin-4-yl)phenyl]methyl}-1-isoquinolin-5-ylurea], for which the EC50 stood at 258 nM.
Turning to `O=C(NCc1ccc(N2CCCCC2)cc1)Nc1cccc2cnccc12` [1-isoquinolin-5-yl-3-{[4-(piperidin-1-yl)phenyl]methyl}urea], the midpoint of the response, the EC50, lay at 7.3 nM.
`O=C(NCc1ccc(N2CCCCCC2)c(F)c1)Nc1cccc2[nH]ncc12` [1-{[4-(azepan-1-yl)-3-fluorophenyl]methyl}-3-1H-indazol-4-ylurea] came in with an EC50 of 14.2 nM.
On to `O=C(NCc1ccc(N2CCCCCC2)c(C(F)(F)F)c1)Nc1cccc2cnccc12` [3-{[4-(azepan-1-yl)-3-(trifluoromethyl)phenyl]methyl}-1-isoquinolin-5-ylurea], for which a half-maximal response (EC50) required 4.6 nM.
`Cc1cc2c(NC(=O)NCc3ccc(N4Cc5ccccc5C4)c(F)c3)cccc2cn1` [3-{[4-(2,3-dihydro-1H-isoindol-2-yl)-3-fluorophenyl]methyl}-1-(3-methylisoquinolin-5-yl)urea] came in with an EC50 of 7360 nM.
`O=C(NCc1ccc(N2CCCCCC2)cc1C(F)(F)F)Nc1cccc2cnccc12` [3-{[4-(azepan-1-yl)-2-(trifluoromethyl)phenyl]methyl}-1-isoquinolin-5-ylurea] returned a half-maximal effective concentration (EC50) of 5.7 nM.
Still for that read-out and setting: to `O=C(NCc1cc(F)c(N2CCOCC2)c(F)c1)Nc1cccc2cnccc12` [3-{[3,5-difluoro-4-(morpholin-4-yl)phenyl]methyl}-1-isoquinolin-5-ylurea] belongs 9.3 nM; to `O=C(NCc1ccc(N2[C@@H]3CCC[C@H]2CC3)cc1)Nc1cccc2[nH]ncc12` [1-({4-[(1R,5S)-8-azabicyclo[3.2.1]octan-8-yl]phenyl}methyl)-3-1H-indazol-4-ylurea], 18 nM; to `O=C(NCc1ccc(N2[C@@H]3CCC[C@H]2CC3)cc1)Nc1cccc2cnccc12` [3-({4-[(1R,5S)-8-azabicyclo[3.2.1]octan-8-yl]phenyl}methyl)-1-isoquinolin-5-ylurea], 3.3 nM.
In the case of `CN(C)c1ccc(CNC(=O)Nc2cccc3cnccc23)cc1` [3-{[4-(dimethylamino)phenyl]methyl}-1-isoquinolin-5-ylurea], the EC50 was determined as 157 nM.
With `Cc1cc2c(NC(=O)NCc3ccc(N4CCCCCC4)cc3)cccc2cn1` [3-{[4-(azepan-1-yl)phenyl]methyl}-1-(3-methylisoquinolin-5-yl)urea], the EC50 was determined as 3.8 nM.
In turn, `O=C(NCc1ccc(N2CCOCC2)cc1)Nc1cccc2cnc(Cl)cc12` [1-(3-chloroisoquinolin-5-yl)-3-{[4-(morpholin-4-yl)phenyl]methyl}urea] came in with an EC50 of 156 nM.
The same measure, in the same setting: with `O=C(NCc1ccc(N2CCCCCC2)cc1Cl)Nc1cccc2[nH]ncc12` [1-{[4-(azepan-1-yl)-2-chlorophenyl]methyl}-3-1H-indazol-4-ylurea] the figure was 190 nM.

(Values after BindingDB's records for doi:10.1021/jm070276i (Abbott Laboratories, 2007).)
